Literature values, collected in paper PMC8198792, “Prediction of Anticancer Peptides with High Efficacy and Low Toxicity by Hybrid Model Based on 3D Structure of Peptides” (International Journal of Molecular Sciences, 2021).
Where two headings read alike, the source gives them in different places.

Tested on: cancer cell lines
Parameters: method as in 6 sources, ref CancerPPD [45] and SATPdb ||| ref CancerPPD/SATPdb ||| ref CancerPPD, SATPdb, Swissprot (PDB) ||| ref CancerPPD/SATPdb/Swissprot(PDB) ||| ref CancerPPD / SATPdb ||| ...
Conditions: cited from earlier work
Description: Supplement ijms-22-05630-s001.zip/ACPs(seguence).xlsx, sheet "D1" | column: Activity || Supplement ijms-22-05630-s001.zip/ACPs(seguence).xlsx, sheet "D2" | column: Activity || Supplement ijms-22-05630-s001.zip/ACPs(seguence).xlsx, sheet "D3" | column: Activity || (+ 2 further places)

[1] = ACPs dataset D1, 1 = ACP (positive), 0 = non-ACP (negative), label taken from databases, ref CancerPPD [45] and SATPdb
[2] = ACPs dataset D4 (sheet "D4"), label 1 = ACP, experimentally validated ACPs, ref CancerPPD [45] and SATPdb
[3] = ACPs dataset D5 (sheet "D5"), label 1 = ACP (positive set), sequences with CancerPPD/SATPdb ID, ref CancerPPD, SATPdb
[4] = ACPs dataset sheet D2, 1 = ACP (CancerPPD/SATPdb ID), 0 = non-ACP (Swissprot/PDB ID), ref CancerPPD, SATPdb, Swissprot (PDB)
[5] = ACPs dataset D5 (sheet "D5"), label 1 = ACP (positive set), 0 = non-ACP (negative set), ref CancerPPD [45] and SATPdb
[6] = ACPs dataset D3 (supplement sheet "D3"), 1 = ACP, 0 = non-ACP, ref CancerPPD [45] and SATPdb
[7] = ACPs dataset D4 (sheet "D4"), label 1 = ACP (CancerPPD ID), 0 = non-ACP (non-anticancer AMP, SATPdb ID), ref CancerPPD [45] and SATPdb
[8] = ACPs dataset D4 (sheet "D4"), label 1 = ACP, 0 = non-ACP, ref CancerPPD / SATPdb
[9] = ACPs dataset D5, sheet "D5", label 1 = ACP, 0 = non-ACP, ref CancerPPD [45] and SATPdb
[10] = ACPs dataset D2 (supplement ACPs(seguence).xlsx, sheet D2), dataset label 1/0 (ACP / non-ACP), entries identified by Swissprot(PDB ID), ref CancerPPD/SATPdb/Swissprot(PDB)
[11] = ACPs dataset D1, label 1 = ACP, 0 = non-ACP (non-anticancer AMPs from SATPdb), ref CancerPPD/SATPdb

Substance	Activity [1]	Activity [2]	Activity [3]	Activity [4]	Activity [5]	Activity [7]	further results
GLFVGVLAKVAAHVVPAIAEHF [compound 4391]	1	1	1	1	–	–	–
ALWKTMLKKLGTMALHAGKAALGAAADTISQGTQ [compound 1708]	1	1	1	1	–	–	–
MTEEMLYAALLSFGLIFVGWGLGVLLLKIQGAEKE [4I7Z X-ray 2.80,F,1-35]	–	–	–	0	0	–	–
GMWSKILGKLIR [compound 3638]	–	–	–	–	1	1	Activity [6]: 1
DFKLFAVTIKYR [satpdb15826]	1	1	1	1	–	–	–
GCVLYPWC [2M6C NMR - A 1-8]	–	–	–	0	0	–	–
RCRLAERRQIAK [satpdb18274]	1	1	1	1	–	–	–
RLYRKVYGRLYRKVYGRLYRKVYGRLYRKVYGKKK [satpdb11459]	–	–	–	–	–	–	Activity [6]: 0; Activity [8]: 0; Activity [9]: 0
PAARKAARWAWRMLKKGA [compound 1614]	1	1	1	1	–	–	–
VIFEWTLLQVLSESDQDQSLEVFLT [satpdb18497]	1	1	1	1	–	–	–
EDMNQKLFDLRGKFKRPPLRRVRMSADAML [satpdb19871]	1	1	1	1	–	–	–
KWKSFLKTFKSLKKTVLHTlLKAISS [compound 3757]	–	–	–	–	1	1	Activity [6]: 1
GPWGPCSGSCGPGRRLRRR [satpdb14705]	1	1	1	1	–	–	–
LTAEHYAAQATS [compound 4580]	1	1	1	1	–	–	–
TTITGKKCQSWAAMFPHRHSKT [satpdb18336]	1	1	1	1	–	–	–
FVQWFSKFLGRIL [6GS5 NMR - A 1-13]	–	–	–	–	0	–	–
MRLKKRFKKFFISRKEYEKIEEILDIGLAKAMEETKDDELLTYDEIKELLGDK [3BPQ X-ray 2.20,A/C,1-52]	–	–	–	–	–	–	Activity [10]: 0; Activity [9]: 0
KLCERSSGTWSGVCGNNNACKNQCINLEGARHGSCNYVFPYHRCICYFPC [satpdb11142]	0	–	–	–	–	0	–
ILGKIWKIKKLF [satpdb10262]	0	–	–	–	–	0	–
MWKWFHNVLSWWWLLADKRPARDYNRK [compound 3074]	1	1	1	1	–	–	–

Substance	Activity [1]	Activity [2]	Activity [3]	Activity [4]	Activity [5]	Activity [7]	further results
TEWSACSKTCGMGISTRV [satpdb13253]	1	1	1	1	–	–	–
GFGMALKLLKKVL [compound 3586]	–	–	–	–	1	1	Activity [6]: 1
LTFSDWWKLLAE [compound 5059]	1	1	1	1	–	–	–
PRAWEYWLRLME [compound 4582]	1	1	1	1	–	–	–
GKWSKILGHLIR [compound 3641]	–	–	–	–	1	1	Activity [6]: 1
KWKLFKKIGIGKFLHSAKKF [compound 1204]	–	–	–	–	1	1	Activity [6]: 1
QPWSQCSATCGDGVRERRR [satpdb12468]	1	1	1	1	–	–	–
MSGELLNAALLSFGLIFVGWALGALLLKIQGAEE [4OGQ X-ray 2.50，F，1-34]	–	–	–	0	0	–	–
KDCKRESNTFPGICITKPPCRKACIREKFTDGHCSKILRRCLCTKPC [5KK4 X-ray 1.70 A/B/C/D/E/F 1-47]	–	–	–	–	0	–	Activity [10]: 0
SCASRCKGHCRARRCGYYVSVLYRGRCYCKCLRC [2EEM NMR - A 1-34]	–	–	–	0	0	–	–
GLFAVIKKVASVIKKL [compound 4111]	–	–	–	–	1	1	Activity [6]: 1
MKVRVDADACIGCGVCENLCPDVFQLGDDGKAKVLQPETDLPCAKDAADSCPTGAISVEE [1VJW X-ray 1.75 A 1-60]	–	–	–	–	–	–	Activity [10]: 0; Activity [9]: 0
APRLPQCQGDDQEKCLCNKDECPPGQCRFPRGDADPYCE [1DEC NMR - A 1-39]	–	–	–	–	0	–	Activity [10]: 0
FAKLA [compound 1859]	–	1	1	–	–	–	Activity [6]: 1
FLPMLAGLAASMVPKLVCLITKKC [satpdb11064]	0	–	–	–	–	0	–
WYVKKCLNDVGICKKKCKPEEMHVKNGWAMCGKGRDCCVPAD [satpdb13381]	–	–	–	–	–	–	Activity [11]: 0; Activity [8]: 0
GIGKFLHSAKKFGKAFVGEIMNSKKKKKKKKKK [satpdb13107]	–	–	–	–	–	–	Activity [11]: 0; Activity [8]: 0
RGGRLCYCRRRFCVCVGR [compound 4251]	–	–	–	–	1	1	Activity [6]: 1
PDEDAINDALNKVCSTGRRQRSICKQLLKK [compound 3108]	1	1	1	1	–	–	–
GIPCGESCVWIPCISAAIGCSCKNKVCYRN [satpdb12462]	–	–	–	–	–	0	Activity [11]: 0

Substance	Activity [1]	Activity [2]	Activity [3]	Activity [4]	Activity [5]	Activity [7]	further results
GIGGVLLSAGKAALKGLAKVLAEKYAN [compound 4400]	1	1	1	1	–	–	–
LVPRGSRAGSPSGGPFCALARQPLTGARLMSGLFFALHET [satpdb15805]	1	1	1	1	–	–	–
KWKSFlKTFKSLKKTVLHTLLKAISS [compound 3768]	–	–	–	–	1	1	Activity [6]: 1
GTLPCGESCVWIPCISAVVGCSCKSKVCYKN [satpdb10694]	0	–	–	–	–	0	–
GIIKKIIIKKIIIKKIIIKKI [compound 1434]	1	1	1	1	–	–	–
FLPLIGKILGTILGK [satpdb11777]	–	–	–	–	–	0	Activity [11]: 0
GILGNIVGMGKQVVCGLSGLC [satpdb10178]	0	–	–	–	–	0	–
NYQWVPYQGRVPYPRGGLLkLLKklLKKLlKL [compound 3344]	–	–	–	–	1	1	Activity [6]: 1
WKSYVRRWRSR [satpdb10329]	0	–	–	–	–	0	–
IWLTALKFLGKNLGKHLAKQQLAKL [6CL3 NMR - A 1-25]	–	–	–	0	0	–	–
GIGKLFLHAAKKFAKAFVAEKMNS [satpdb10222]	0	–	–	–	–	0	–
RGFRKHFNKLVKKVKHTISETAHVAKDTAVIAG [satpdb11665]	–	–	–	–	–	–	Activity [6]: 0; Activity [8]: 0; Activity [9]: 0
FLPIIASVAANVFSKIFCAISKKC [satpdb10458]	0	–	–	–	–	0	–
ENFAGGCATGYLRTADGRCKPTF [1HRL NMR - A 1-23]	–	–	–	0	0	–	–
MAKWRCKICGYIYDEDEGDPDNGISPGTKFEDLPDDWVCPLCGAPKSEFERIE [1YK5 X-ray 1.79 A/B/C/D 1-53]	–	–	–	–	–	–	Activity [10]: 0; Activity [9]: 0
KWKLFKKIPLKKF [compound 1122]	–	–	–	–	1	1	Activity [6]: 1
KWKIFKKIEHMGQNIRDGLIKAGPAVQVVGQAATIYKG [satpdb11253]	0	–	–	–	–	0	–
GVDITVIRPNH [satpdb22601]	1	1	1	1	–	–	–
IFGAIWKGISSLL [satpdb10136]	0	–	–	–	–	0	–
KWKLFKKIPHLAKKF [compound 1140]	–	–	–	–	1	1	Activity [6]: 1
